The text below walks through data of patent publication US20250127176A1 (priority 2021, published 2025).

Read-outs that look alike come from different tables or passages of the source.

Assay [1] deals with late blight of potato (Phytophthora infestans). The assay is classed as in vivo.
In another assay the test system is late blight of potato. It counts as in vivo, Phytophthora infestans. The settings on record: T4: foliar spray, 7 days interval; 0.8 ml/L.
Where [2] appears, read: T3: foliar spray 30, 45, 60 and 75th day, dose 2.0 mL/Litre.
[3] abbreviates: T4: foliar spray 30, 45, 60 and 75th day, dose 2 g/lit.
Setting [4] is: T5: foliar spray 45th day only, dose 2 g/lit.

Take `C#CCOc1ccc(CCNC(=O)C(OCC#C)c2ccc(Cl)cc2)cc1OC` (centres unmarked) [Mandipropamid]: the “Per cent Disease Index (PDI)” value in assay [1] (setting [2]) is on record as 12.5%; in the assay on late blight of potato, 14.11%. Further, the “Per cent reduction over control” value worked out at 86.7% in assay [1] (setting [2]) and 83.40% in the assay on late blight of potato.

Regarding Mancozeb, in assay [1] (setting [3]), the “Per cent Disease Index (PDI)” value amounted to 15.6% and the “Per cent reduction over control” value worked out at 83.4%. Further, in assay [1] (setting [4]), the “Per cent Disease Index (PDI)” value is reported as 45.2% and the “Per cent reduction over control” value was found to be 51.9%.
